Source: US20230398130A1, “METHODS AND COMPOSITIONS FOR DIFFERENTIATING STEM CELLS” (Massachusetts Institute of Technology, priority 2020, published 2023)

Tests used:
ISC-enriched organoids [1] = assay: Primary screen, 384-well 2.5-D organoid differentiation (ENR+CD, 6 days): basal lysozyme secretion (LYZ.NS); type: cell-based, murine; conditions: for Dose.FC.LYZ.NS: FC vs plate median; for Z.LYZ.NS: standard z score of FC; for Dose.FC.LYZ.NS (log 2 fold change): vs plate median
From the text: (§1) High-throughput screening.

ISC-enriched organoids [2] = assay: Primary screen, 384-well 2.5-D organoid differentiation (ENR+CD, 6 days, Target Selective Inhibitor Library, vs whole-plate median): ATP (CellTiter-Glo 3D, CTG); conditions: for Dose.FC.CTG: FC vs plate median; for Z.CTG: standard z score of FC; for Dose.FC.CTG (log 2 fold change): vs plate median
ISC-enriched organoids [3] = assay: Primary screen, 384-well 2.5-D organoid differentiation (ENR+CD, 6 days): carbachol-induced lysozyme secretion (LYZ.S); type: cell-based, murine; conditions: for Dose.FC.LYZ.S: FC vs plate median; for Dose.FC.LYZ.S (log 2 fold change): vs plate median
From the text: as §1

## CC(=O)c1cc([N+](=O)[O-])c(Sc2ccc(F)cc2F)s1 [P22077]
ISC-enriched organoids [1]; Dose 0.08 uM, primary screen
  Dose.FC.LYZ.NS: 0.039 log 2 fold change
ISC-enriched organoids [1]; Dose 0.08 uM
  Z.LYZ.NS: 0.338
ISC-enriched organoids [1]; Dose 0.40 uM, primary screen
  Dose.FC.LYZ.NS: −0.005 log 2 fold change
ISC-enriched organoids [1]; Dose 0.40 uM
  Z.LYZ.NS: −0.041
ISC-enriched organoids [1]; Dose 2.00 uM, primary screen
  Dose.FC.LYZ.NS: 0.028 log 2 fold change
ISC-enriched organoids [1]; Dose 2.00 uM
  Z.LYZ.NS: 0.248
ISC-enriched organoids [1]; Dose 10.00 uM, primary screen
  Dose.FC.LYZ.NS: −0.056 log 2 fold change
ISC-enriched organoids [1]; Dose 10.00 uM
  Z.LYZ.NS: −0.487
ISC-enriched organoids [2]; Dose 0.08 uM, primary screen
  Dose.FC.CTG: −0.216 log 2 fold change
ISC-enriched organoids [2]; Dose 0.08 uM
  Z.CTG: −0.516
ISC-enriched organoids [2]; Dose 0.40 uM, primary screen
  Dose.FC.CTG: 0.049 log 2 fold change
ISC-enriched organoids [2]; Dose 0.40 uM
  Z.CTG: 0.117
ISC-enriched organoids [2]; Dose 2.00 uM, primary screen
  Dose.FC.CTG: −0.134 log 2 fold change
ISC-enriched organoids [2]; Dose 2.00 uM
  Z.CTG: −0.320
ISC-enriched organoids [2]; Dose 10.00 uM, primary screen
  Dose.FC.CTG: −0.130 log 2 fold change
ISC-enriched organoids [2]; Dose 10.00 uM
  Z.CTG: −0.311
ISC-enriched organoids [3]; Dose 0.08 uM, primary screen
  Dose.FC.LYZ.S: −0.182 log 2 fold change
ISC-enriched organoids [3]; Dose 0.40 uM, primary screen
  Dose.FC.LYZ.S: 0.065 log 2 fold change
ISC-enriched organoids [3]; Dose 2.00 uM, primary screen
  Dose.FC.LYZ.S: −0.007 log 2 fold change
ISC-enriched organoids [3]; Dose 10.00 uM, primary screen
  Dose.FC.LYZ.S: −0.063 log 2 fold change

## CO[C@H]1C[C@@H]2CC[C@@H](C)[C@@](O)(O2)C(=O)C(=O)N2CCCC[C@H]2C(=O)O[C@H]([C@H](C)C[C@@H]2CC[C@@H](OCCO)[C@H](OC)C2)CC(=O)[C@H](C)/C=C(\C)[C@@H](O)[C@@H](OC)C(=O)[C@H](C)C[C@H](C)/C=C/C=C/C=C/1C [Everolimus (RAD001)]
ISC-enriched organoids [1]; Dose 0.08 uM, ENR+CD, 6 days
  Dose.FC.LYZ.NS: 0.068 log 2 fold change
ISC-enriched organoids [1]; Dose 0.08 uM
  Z.LYZ.NS: 0.590
ISC-enriched organoids [1]; Dose 0.40 uM, ENR+CD, 6 days
  Dose.FC.LYZ.NS: 0.110 log 2 fold change
ISC-enriched organoids [1]; Dose 0.40 uM
  Z.LYZ.NS: 0.956
ISC-enriched organoids [1]; Dose 2.00 uM, ENR+CD, 6 days
  Dose.FC.LYZ.NS: −0.003 log 2 fold change
ISC-enriched organoids [1]; Dose 2.00 uM
  Z.LYZ.NS: −0.030
ISC-enriched organoids [1]; Dose 10.00 uM, ENR+CD, 6 days
  Dose.FC.LYZ.NS: −0.024 log 2 fold change
ISC-enriched organoids [1]; Dose 10.00 uM
  Z.LYZ.NS: −0.210
ISC-enriched organoids [2]; Dose 0.08 uM, ENR+CD, 6 days
  Dose.FC.CTG: 0.392 log 2 fold change
ISC-enriched organoids [2]; Dose 0.08 uM
  Z.CTG: 0.936
ISC-enriched organoids [2]; Dose 0.40 uM, ENR+CD, 6 days
  Dose.FC.CTG: 0.127 log 2 fold change
ISC-enriched organoids [2]; Dose 0.40 uM
  Z.CTG: 0.304
ISC-enriched organoids [2]; Dose 2.00 uM, ENR+CD, 6 days
  Dose.FC.CTG: 0.132 log 2 fold change
ISC-enriched organoids [2]; Dose 2.00 uM
  Z.CTG: 0.314
ISC-enriched organoids [2]; Dose 10.00 uM, ENR+CD, 6 days
  Dose.FC.CTG: −0.111 log 2 fold change
ISC-enriched organoids [2]; Dose 10.00 uM
  Z.CTG: −0.266
ISC-enriched organoids [3]; Dose 0.08 uM, ENR+CD, 6 days
  Dose.FC.LYZ.S: −0.012 log 2 fold change
ISC-enriched organoids [3]; Dose 0.40 uM, ENR+CD, 6 days
  Dose.FC.LYZ.S: −0.007 log 2 fold change
ISC-enriched organoids [3]; Dose 2.00 uM, ENR+CD, 6 days
  Dose.FC.LYZ.S: −0.039 log 2 fold change
ISC-enriched organoids [3]; Dose 10.00 uM, ENR+CD, 6 days
  Dose.FC.LYZ.S: −0.096 log 2 fold change

## SN-38
ISC-enriched organoids [1]; Dose 0.08 uM, primary screen
  Z.LYZ.NS (standard z score): −2.391
  Dose.FC.LYZ.NS (log 2 fold change): −0.275
ISC-enriched organoids [1]; Dose 0.40 uM, primary screen
  Z.LYZ.NS (standard z score): −2.505
  Dose.FC.LYZ.NS (log 2 fold change): −0.288
ISC-enriched organoids [1]; Dose 2.00 uM, primary screen
  Z.LYZ.NS (standard z score): −2.655
  Dose.FC.LYZ.NS (log 2 fold change): −0.305
ISC-enriched organoids [1]; Dose 10.00 uM, primary screen
  Z.LYZ.NS (standard z score): −2.606
  Dose.FC.LYZ.NS (log 2 fold change): −0.299
ISC-enriched organoids [2]; Dose 0.08 uM, primary screen
  Z.CTG (standard z score): −1.720
  Dose.FC.CTG (log 2 fold change): −0.720
ISC-enriched organoids [2]; Dose 0.40 uM, primary screen
  Z.CTG (standard z score): −2.606
  Dose.FC.CTG (log 2 fold change): −1.091
ISC-enriched organoids [2]; Dose 2.00 uM, primary screen
  Z.CTG (standard z score): −2.929
  Dose.FC.CTG (log 2 fold change): −1.226
ISC-enriched organoids [2]; Dose 10.00 uM, primary screen
  Z.CTG (standard z score): −2.785
  Dose.FC.CTG (log 2 fold change): −1.166
ISC-enriched organoids [3]; Dose 0.08 uM, primary screen
  Dose.FC.LYZ.S (log 2 fold change): −0.419
ISC-enriched organoids [3]; Dose 0.40 uM, primary screen
  Dose.FC.LYZ.S (log 2 fold change): −0.402
ISC-enriched organoids [3]; Dose 2.00 uM, primary screen
  Dose.FC.LYZ.S (log 2 fold change): −0.391
ISC-enriched organoids [3]; Dose 10.00 uM, primary screen
  Dose.FC.LYZ.S (log 2 fold change): −0.404
